Data taken from patent US20070037840A1, “Tricyclic benzimidazoles” (Altana Pharma AG, priority 2003, published 2007).

Experiments:
[1] = system: pentagastrin-stimulated acid secretion of the perfused rat stomach; assay: Secretion-inhibiting action on the perfused rat stomach (pentagastrin-stimulated acid secretion); format: in vivo; conditions: anesthetized CD rat, dose 2.0 μmol/kg i.d.
Text: Testing of the Secretion-Inhibiting Action on the Perfused Rat Stomach
In Table A which follows, the influence of the compounds of the formula 1 according to the invention on the pentagastrin-stimulated acid secretion of the perfused rat stomach after intraduodenal administration in vivo is shown.
The abdomen of anesthetized rats (CD rat, female, 200-250 g; 1.5 g/kg i.m. urethane) was opened after tracheotomy by a median upper abdominal incision and a PVC catheter was fixed transorally in the esophagus and another via the pylorus such that the ends of the tubes just projected into the gastric lumen. The catheter leading from the pylorus led outward into the right abdominal wall through a side opening.
After thorough rinsing (about 50-100 ml), warm (37° C.) physiological NaCl solution was continuously passed through the stomach (0.5 ml/min, pH 6.8-6.9; Braun-Unita I). The pH (pH meter 632, glass electrode EA 147; φ=5 mm, Metrohm) and, by titration with a freshly prepared 0.01N NaOH solution to pH 7 (Dosimat 665 Metrohm), the secreted HCl were determined in the effluent in each case collected at an interval of 15 minutes.
The gastric secretion was stimulated by continuous infusion of […] (=1.65 ml/h) of i.v. pentagastrin (left femoral vein) about 30 min after the end of the operation (i.e. after determination of 2 preliminary fractions). The substances to be tested were administered intraduodenally in a 2.5 ml/kg liquid volume 60 min after the start of the continuous pentagastrin infusion. The body temperature of the animals was kept at a constant 37.8-38° C. by infrared irradiation and heat pads (automatic, stepless control by means of a rectal temperature sensor).

SMILES	Inhibition of acid secretion [1] [%]	melting point [°C]
CCO[C@H]1c2ccc3c(nc(C)n3C)c2N[C@H](c2ccccc2)[C@H]1O [Example 4, (6S,7R,8R)-2,3-Dimethyl-6-ethoxy-7-hydroxy-8-phenyl-6,7,8,9-tetrahydro-3H-imidazo[4,5-h]-quinoline]	<50	169.9
Cc1nc2c3c(ccc2n1C)[C@@H](OCC(F)F)[C@H](O)[C@@H](c1ccccc1)N3 [Example 7, (6R,7R,8R)-2,3-Dimethyl-7-hydroxy-6-(2,2-difluoroethoxy)-8-phenyl-6,7,8,9-tetrahydro-3H-imidazo[4,5-h]quinoline]	>50	–
Cc1nc2c3c(ccc2n1C)[C@H](O)[C@H](O)[C@@H](c1ccccc1)N3 [Example 6, (6S,7R,8R)-2,3-Dimethyl-6,7-dihydroxy-8-phenyl-6,7,8,9tetrahydro-3H-imidazo[4,5-h]quinoline]	<50	235.4
Cc1nc2c3c(ccc2n1C)[C@@H](O)[C@H](O)[C@@H](c1ccccc1)N3 [Example 5, (6R,7R,8R)-2,3-Dimethyl-6,7-dihydroxyl-8-phenyl-6,7,8,9-tetrahydro-3H-imidazo[4,5-h]quinoline]	>50	224.7
COCCO[C@H]1c2ccc3c(nc(C)n3C)c2N[C@H](c2ccccc2)[C@H]1O [Example 2, (6S,7R,8R)-2,3-Dimethyl-7-hydroxy-6-(2-methoxyethoxy)-8-phenyl-6,7,8,9-tetrahydro-3H-imidazo[4,5-]quinoline]	<50	–
CCO[C@@H]1c2ccc3c(nc(C)n3C)c2N[C@H](c2ccccc2)[C@H]1O [Example 3, (6R,7R,8R)-2,3-Dimethyl-6-ethoxy-7-hydroxy-8-phenyl-6,7,8,9-tetrehydro-3H-imidazo[4,5h]-quinoline]	>50	–
COCCO[C@@H]1c2ccc3c(nc(C)n3C)c2N[C@H](c2ccccc2)[C@H]1O [Example 1, (6R,7R,8R)-2,3-Dimethyl-7-hydroxy-6-(2-methoxyethoxy)-8-phenyl-6,7,8,9-tetrahydro-3H-imidazo[4,5h]quinoline]	>50	–
